Results: patent US6359181B1, “Cyclopentane 1-hydroxy alkyl or alkenyl-2-one or 2-hydroxy derivatives as therapeutic agents” (Allergan Sales, Inc., priority 2000, dated 2002)

Tests used:
[1] = system: Dog intraocular pressure; assay: Intraocular pressure in dogs by applanation pneumatonometry; format: in vivo; details: 25 μl to the ocular surface, IOP before and at 6 hours after administration, FIG. 9
Description: The compounds were prepared at the said concentrations in a vehicle comprising 0.1% polysorbate 80 and 10 mM TRIS base. Dogs were treated by administering 25 μl to the ocular surface, the contralateral eye received vehicle as a control. Intraocular pressure was measured by applanation pneumatonometry. Dog intraocular pressure was measured immediately before drug administration and at 6 hours thereafter.

[2] = system: ocular surface; details: topical ocular use in humans; cited from earlier work
[3] = system: intraocular pressure; details: ocular; compared with PGF2α; cited from earlier work

Compound	ocular hypotensive effect [1]	ocular side effects [2]	hypotensive potency versus parent compound [3]
CC(=O)OCC(=O)CCC/C=C\C[C@@H]1[C@@H](/C=C/[C@@H](O)CCc2ccc(Cl)s2)[C@H](O)C[C@@H]1O [Example 101, Acetic Acid (Z)-8-{(1R,2R,3R,5S)-2-[(S)-(E)-5-(5-chloro-thiophen-2-yl)-3-hydroxy-pent-1-enyl]-3,5-dihydroxy-cyclopentyl}-2-oxo-oct-6-enyl Ester]	pronounced ocular hypotensive effect	–	–
CC(=O)OCC(=O)CCC/C=C\C[C@@H]1[C@@H](/C=C/[C@@H](O)CCc2ccc(Cl)s2)[C@H](OC(C)=O)C[C@@H]1O [Example 102, Acetic Acid (Z)-8-{(1R,2R,3R,5S)-3-acetoxy-2-[(S)-(E)-5-(5-chloro-thiophen-2-yl)-3-hydroxy-pent-1-enyl]-5-hydroxy-cyclopentyl}-2-oxo-oct-6-enyl Ester]	pronounced ocular hypotensive effect	–	–
CCCCC[C@H](O)/C=C/[C@@H]1[C@@H](C/C=C\CCCC(=O)O)[C@@H](O)C[C@H]1O [PGF2α, (Z)-7-[(1R,2R,3R,5S)-3,5-Dihydroxy-2-((S)-(E)-3-hydroxyoct-1-enyl)-cyclopentyl]hept-5-enoic Acid]	–	ocular surface (conjunctival) hyperemia and foreign-body sensation	–
CCCCC[C@H](O)/C=C/[C@@H]1[C@@H](C/C=C\CCCC(=O)OC(C)C)[C@@H](O)C[C@H]1O [isopropyl ester of PGF2α]	–	ocular surface (conjunctival) hyperemia and foreign-body sensation	significantly greater hypotensive potency than the parent compound
